Experimental data from patent US20030170643A1, “Regulation of apoB treatment and drug screening for cardiovascular and metabolic disorders or syndromes” (priority 1999, published 2003).

Molecular target: T1, MTP (Rattus norvegicus, UniProt D4A1W8)
T1 construct: endogenous in cells; host or cells: rat primary hepatocytes (male Sprague-Dawley), cell lysate
T1 sequence (D4A1W8 22-896): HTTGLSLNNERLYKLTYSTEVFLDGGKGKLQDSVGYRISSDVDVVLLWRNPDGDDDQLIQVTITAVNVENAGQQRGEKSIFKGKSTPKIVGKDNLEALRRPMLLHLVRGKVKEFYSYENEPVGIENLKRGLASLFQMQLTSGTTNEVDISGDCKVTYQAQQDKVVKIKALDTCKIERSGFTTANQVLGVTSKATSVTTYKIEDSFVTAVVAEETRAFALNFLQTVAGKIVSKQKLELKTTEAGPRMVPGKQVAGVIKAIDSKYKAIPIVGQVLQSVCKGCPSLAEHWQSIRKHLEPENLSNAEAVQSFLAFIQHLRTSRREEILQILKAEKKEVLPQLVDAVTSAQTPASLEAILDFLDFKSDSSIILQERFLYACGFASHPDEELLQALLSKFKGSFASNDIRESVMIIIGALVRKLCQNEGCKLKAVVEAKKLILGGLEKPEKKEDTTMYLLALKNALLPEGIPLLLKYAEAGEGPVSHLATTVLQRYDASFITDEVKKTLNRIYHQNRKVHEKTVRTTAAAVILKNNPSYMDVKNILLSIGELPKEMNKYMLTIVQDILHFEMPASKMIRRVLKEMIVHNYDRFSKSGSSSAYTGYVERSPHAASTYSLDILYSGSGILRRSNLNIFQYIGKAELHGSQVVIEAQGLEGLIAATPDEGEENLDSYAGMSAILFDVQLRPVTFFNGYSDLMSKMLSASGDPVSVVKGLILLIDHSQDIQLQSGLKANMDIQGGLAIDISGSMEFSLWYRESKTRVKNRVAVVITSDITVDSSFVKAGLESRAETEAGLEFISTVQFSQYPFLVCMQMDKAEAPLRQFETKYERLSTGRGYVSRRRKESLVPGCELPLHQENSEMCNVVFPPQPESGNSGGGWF
T1 sequence (P04785 20-509 partner): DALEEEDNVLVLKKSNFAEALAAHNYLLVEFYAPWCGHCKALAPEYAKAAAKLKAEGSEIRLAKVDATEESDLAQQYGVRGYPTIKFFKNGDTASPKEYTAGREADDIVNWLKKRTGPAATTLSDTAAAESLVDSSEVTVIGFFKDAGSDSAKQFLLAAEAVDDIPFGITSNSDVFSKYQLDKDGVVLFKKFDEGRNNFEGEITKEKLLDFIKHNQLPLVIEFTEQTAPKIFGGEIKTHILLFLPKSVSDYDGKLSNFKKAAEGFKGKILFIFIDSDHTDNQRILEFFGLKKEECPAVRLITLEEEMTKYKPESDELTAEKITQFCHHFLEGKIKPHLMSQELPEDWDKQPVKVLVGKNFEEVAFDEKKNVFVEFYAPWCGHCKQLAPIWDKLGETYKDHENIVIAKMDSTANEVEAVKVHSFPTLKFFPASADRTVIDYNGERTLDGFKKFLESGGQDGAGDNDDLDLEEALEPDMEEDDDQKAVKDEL
Assay: MTP activity in lysates of fatty acid-pretreated rat primary hepatocytes
Format: biochemical
Details: hepatocytes pre-treated 6 hr with BSA, OA or EPA
Method: Three methods were used to assess possible effects of Ω-3 fatty acids on cellular MTP function. First, rat primary hepatocytes were incubated with BSA, OA, or EPA, and then MTP activity in cell lysates was measured using a fluorescent assay (Roar Biomedical, New York, NY). Second, to determine if lipid classes synthesized in the presence of OA or Ω-3 fatty acid are equivalent substrates for MTP, primary rat hepatocytes or HepG2 cells were incubated with tritiated OA or EPA, total cellular lipids were extracted into isopropanol, and biosynthetically labeled cholesteryl ester, triglyceride, and phospholipids were separated by preparative thin layer chromatography. […] Transfer of the labeled lipids to acceptor vesicles in the presence of 50 μg of purified bovine MTP was measured as described in Jamil, H. et al (1995) J Biol Chem 270(12), 6549-54.
First, it was necessary to test the possibility that Ω-3 fatty acids stimulate apob degradation by impeding MTP-dependent early lipidation, thereby targeting apoB to proteasomes. Rat primary hepatocytes were pre-treated for 6 hr with BSA, OA, or EPA, and then the MTP activity in lysates of these cells was assessed using artificial donor and acceptor vesicles, with [^14C]triolein as the MTP substrate, as described in Jamil, H. et al. (1995) J Biol Chem 270(12), 6549-54.

CCCCCCCC/C=C\CCCCCCCC(=O)O [OA, oleic acid]
MTP-mediated transfer of labeled triolein in cell lysates: No difference
